Data on 30 compounds can be found in patent US9718816B2, “1-phenoxy-3-(alkylamino)-propan-2-ol derivatives as CARM1 inhibitors and uses thereof” (Epizyme, Inc., priority 2013, dated 2017).

This assay deals with T1, CARM1 (Homo sapiens, UniProt Q86X55).
T1 construct: Flag-CARM1-His; made in house; host or cells: HEK 293F cells infected with recombinant baculovirus (pFastBacMam)
T1 sequence (Q86X55 1-585 isoform Q86X55-1): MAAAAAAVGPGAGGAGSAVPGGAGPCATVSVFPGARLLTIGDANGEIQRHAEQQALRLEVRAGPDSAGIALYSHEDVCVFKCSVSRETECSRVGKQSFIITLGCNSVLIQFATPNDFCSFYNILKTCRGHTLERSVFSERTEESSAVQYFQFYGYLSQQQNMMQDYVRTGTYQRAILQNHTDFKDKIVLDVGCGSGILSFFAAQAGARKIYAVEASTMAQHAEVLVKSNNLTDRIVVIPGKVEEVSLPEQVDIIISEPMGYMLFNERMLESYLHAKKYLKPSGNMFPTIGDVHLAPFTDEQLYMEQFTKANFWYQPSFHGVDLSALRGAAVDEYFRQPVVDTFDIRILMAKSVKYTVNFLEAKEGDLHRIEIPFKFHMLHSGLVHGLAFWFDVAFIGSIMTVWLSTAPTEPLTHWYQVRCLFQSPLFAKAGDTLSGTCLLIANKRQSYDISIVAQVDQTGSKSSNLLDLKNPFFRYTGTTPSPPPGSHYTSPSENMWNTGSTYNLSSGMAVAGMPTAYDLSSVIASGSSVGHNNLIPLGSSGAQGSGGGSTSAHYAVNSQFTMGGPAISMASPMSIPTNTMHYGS
As to the kind of experiment: CARM1 enzyme assay on peptide substrate (3H-SAM Flashplate). It counts as biochemical. To be noted: CARM1 0.25 nM, 3H-SAM 30 nM, peptide 250 nM, 30 min preincubation; read-out: Biochem IC50. The text has this: S-adenosylmethionine (SAM), S-adenosylhomocysteine (SAH), bicine, Tween20, dimethylsulfoxide (DMSO), bovine skin gelatin (BSG), sodium butyrate and Tris(2-carboxyethyl)phosphine hydrochloride solution (TCEP) were purchased from Sigma-Aldrich at the highest level of purity possible. ^3H-SAM was purchase from American Radiolabeled Chemicals with a specific activity of 80 Ci/mmol. 384-well streptavidin Flashplates were purchased from PerkinElmer.
Peptide representative of human histone H3 residues 16-30 was synthesized with an N-terminal linker-affinity tag motif and a C-terminal amide cap by 21^St Century Biochemicals. The peptide was purified by high-performance liquid chromatography (HPLC) to greater than 95% purity and confirmed by liquid chromatography mass spectrometry (LC-MS). The sequence was Biot-Ahx-[…]-amide and contained a monomethylated arginine at position 26 (SEQ ID NO.:1).
Human CARM1 (PRMT4) (NM_199141.1) transcript clone was amplified from an HEK 293 cDNA library, incorporating a flanking 5′ sequence encoding a FLAG tag ([…]) (SEQ ID NO.:2) fused directly to Ala 2 of CARM1 and 3′ sequence encoding a hexa His sequence ([…]) (SEQ ID NO.:3) fused directly to Ser 608. The gene sequence encoding isoform1 containing a deletion of amino acids 539-561 was amplified subsequently and subcloned into pFastBacMam (Viva Biotech). Protein Expression
Recombinant baculovirus were generated according to Bac-to-Bac kit instructions (Life Technologies). Protein over-expression was accomplished by infecting exponentially growing HEK 293F cell culture at 1.3×10^6 cell/ml with virus (MOI=10) in the presence of 8 mM sodium butyrate. Infections were carried out at 37° C. for 48 hours, harvested by centrifugation, and stored at −80° C. for purification.
Column was washed with 500 mM NaCl in buffer A and Flag-CARM1-His was eluted with 200 ug/ml FLAG peptide in buffer A. Pooled fractions were dialyzed in 20 mM Tris, 150 mM NaCl, 5% glycerol and 1 mM DTT, pH 7.8. The purity of recovered protein was 94.
General Procedure for CARM1 Enzyme Assays on Peptide Substrates
The assays were all performed in a buffer consisting of 20 mM Bicine (pH=7.6), 1 mM TCEP, 0.005% BSG, and 0.002% Tween 20, prepared on the day of use. Compounds in 100% DMSO (1 ul) were spotted into a polypropylene 384-well V-bottom plates (Greiner) using a Platemate Plus outfitted with a 384-channel head (Thermo Scientific). DMSO (1 ul) was added to Columns 11, 12, 23, 24, rows A-H for the maximum signal control and 1 ul of SAH, a known product and inhibitor of CARM1, was added to columns 11, 12, 23, 24, rows I-P for the minimum signal control. A cocktail (40 ul) containing the CARM1 enzyme was added by Multidrop Combi (Thermo-Fisher). The compounds were allowed to incubate with CARM1 for 30 min at room temperature, then a cocktail (10 ul) containing ^3H-SAM and peptide was added to initiate the reaction (final volume=51 ul). The final concentrations of the components were as follows: CARM1 was 0.25 nM, ^3H-SAM was 30 nM, peptide was 250 nM, SAH in the minimum signal control wells was 1 mM, and the DMSO concentration was 2%. The assays were stopped by the addition of non-radiolabeled SAM (10 ul) to a final concentration of 300 uM, which dilutes the ^3H-SAM to a level where its incorporation into the peptide substrate is no longer detectable. 50 ul of the reaction in the 384-well polypropylene plate was then transferred to a 384-well Flashplate and the biotinylated peptides were allowed to bind to the streptavidin surface for at least 1 hour before being washed once with 0.1% Tween20 in a Biotek ELx405 plate washer. The plates were then read in a PerkinElmer TopCount plate reader to measure the quantity of ^3H-labeled peptide bound to the Flashplate surface, measured as disintegrations per minute (dpm) or alternatively, referred to as counts per minute (cpm). […]
In the case of `CNCC(O)COc1cccc(-c2cc(NC(=O)NC3CCOCC3)c3cnn(C(C)C)c3n2)c1` (stereo not drawn) [Example 2-1], the IC50 (commonly the concentration that gives 50% inhibition) was less than 0.1 µM. As to `CC(C)n1ncc2c(N3CCOCC3)cc(-c3cccc(OCC(O)CN)c3)nc21` (stereo not drawn) [Example 3-1], the IC50 is less than 0.1 µM. With `CNCC(O)COc1cccc(-c2cc(N)c3cnn(C(C)C)c3n2)c1` (stereo not drawn) [Example 4-1] the figure was 1 to 3 µM; with `CNCC(O)COc1cccc(-c2cc(NC)c3cnn(C(C)C)c3n2)c1` (stereo not drawn) [Example 5-1], 0.1 to 1 µM; with `CC(C)n1ncc2c(NC3CC3)cc(-c3cccc(OCC(O)CN)c3)nc21` (stereo not drawn) [Example 6-1], 0.1 to 1 µM. `CNCC(O)COc1cccc(-c2cc(NC3CC3)c3cnn(C(C)C)c3n2)c1` (stereo not drawn) [Example 7-1]: the IC50 is 0.1 to 1 µM.

For the compound `CNC(=O)Nc1cc(-c2cccc(OCC(O)CN)c2)nc2c1cnn2C(C)C` (stereo not drawn) [Example 8-1], the concentration for half-maximal inhibition (IC50) was in the range of 0.1 to 1 µM. The result for `CNCC(O)COc1cccc(-c2cc(NCCN)c3cnn(C(C)C)c3n2)c1` (stereo not drawn) [Example 9-1] reads 0.1 to 1 µM; that for `COC(=O)Nc1cc(-c2cccc(OCC(O)CN)c2)nc2c1cnn2C(C)C` (stereo not drawn) [Example 10-1], 0.1 to 1 µM. As for `CC(C)n1ncc2c(N3CCOCC3)cc(-c3cccc(OCC(O)CN)c3)nc21` (stereo not drawn) [Example 11-1], the half-maximal inhibitory concentration (IC50) fell in the range of 0.1 to 1 µM. With `CC(C)n1ncc2c(N3CCOCC3)cc(-c3cccc(OC[C@@H](O)CN)c3)nc21` [Example 12-1] the figure was 0.1 to 1 µM; with `CNCC(O)COc1cccc(-c2cc(NC(=O)NC)c3cnn(C(C)C)c3n2)c1` (stereo not drawn) [Example 13-1], less than 0.1 µM; with `CC(C)n1ncc2c(NC(=O)N(C)C)cc(-c3cccc(OCC(O)CN)c3)nc21` (stereo not drawn) [Example 14-1], 0.1 to 1 µM. Turning to `CNCC(O)COc1cccc(-c2cc(NCCCN)c3cnn(C(C)C)c3n2)c1` (stereo not drawn) [Example 15-1], the IC50 fell in the range of 0.1 to 1 µM. `CNCC(O)COc1cccc(-c2cc(NC(=O)OC)c3cnn(C(C)C)c3n2)c1` (stereo not drawn) [Example 16-1]: the IC50 fell in the range of 0.1 to 1 µM. `CCOC(=O)Nc1cc(-c2cccc(OCC(O)CN)c2)nc2c1cnn2C(C)C` (stereo not drawn) [Example 17-1]: the IC50 was 0.1 to 1 µM. Take `COC(=O)CNc1cc(-c2cccc(OCC(O)CN)c2)nc2c1cnn2C(C)C` (stereo not drawn) [Example 18-1]: the IC50 fell in the range of 0.1 to 1 µM. As to `CC(C)n1ncc2c(NC3CCOCC3)cc(-c3cccc(OCC(O)CN)c3)nc21` (stereo not drawn) [Example 19-1], the concentration for half-maximal inhibition (IC50) lay within 0.1 to 1 µM.

As for `CNCC(O)COc1cccc(-c2cc(N3CCOCC3)c3cnn(C(C)C)c3n2)c1` (stereo not drawn) [Example 20-1], the IC50 was less than 0.1 µM. With `CNCC(O)COc1cccc(-c2cc(NC(=O)N(C)C)c3cnn(C(C)C)c3n2)c1` (stereo not drawn) [Example 21-1] the figure was 0.1 to 1 µM; with `CNCC(O)COc1cccc(-c2cc(NCCCCN)c3cnn(C(C)C)c3n2)c1` (stereo not drawn) [Example 22-1], less than 0.1 µM; with `CNCC(O)COc1cccc(-c2cc(NCC(=O)OC)c3cnn(C(C)C)c3n2)c1` (stereo not drawn) [Example 23-1], 0.1 to 1 µM.

With `CNCC(O)COc1cccc(-c2cc(Nc3ccccn3)c3cnn(C(C)C)c3n2)c1` (stereo not drawn) [Example 24-1], the IC50 was 0.1 to 1 µM.

In the case of `CC(C)n1ncc2c(NCc3cccnc3)cc(-c3cccc(OCC(O)CN)c3)nc21` (stereo not drawn) [Example 25-1], the 50% inhibitory concentration (IC50) fell in the range of 3 to 10 µM. With `CC(C)n1ncc2c(NCc3ccncc3)cc(-c3cccc(OCC(O)CN)c3)nc21` (stereo not drawn) [Example 26-1] the figure was less than 0.1 µM; with `CNCC(O)COc1cccc(-c2cc(NCc3nnn[nH]3)c3cnn(C(C)C)c3n2)c1` (stereo not drawn) [Example 27-1], less than 0.1 µM; with `CC(C)n1ncc2c(N(C)C3CCOCC3)cc(-c3cccc(OCC(O)CN)c3)nc21` (stereo not drawn) [Example 28-1], 0.1 to 1 µM. For the compound `CNCC(O)COc1cccc(-c2cc(NC3CCOCC3)c3cnn(C(C)C)c3n2)c1` (stereo not drawn) [Example 29-1], the IC50 fell in the range of 3 to 10 µM. With `CC(C)n1ncc2c(NCC3CCOCC3)cc(-c3cccc(OCC(O)CN)c3)nc21` (stereo not drawn) [Example 30-1] the figure was less than 0.1 µM; with `CCNCC(O)COc1cccc(-c2cc(N3CCOCC3)c3cnn(C(C)C)c3n2)c1` (stereo not drawn) [Example 31-1], less than 0.1 µM.
